ChEMBL document CHEMBL1145961, “Metabolism-directed optimization of 3-aminopyrazinone acetamide thrombin inhibitors. Development of an orally bioavailable series containing P1 and P3 pyridines” (J Med Chem, 2003)

Legend:
Serine protease 1 = Serine protease 1 (Homo sapiens, UniProt P07477); assay: Inhibitory constant against human trypsin
[1] = Concentration required to double the activated partial thromboplastin time (2x APTT) in human plasma; assay type: functional
Prothrombin = Prothrombin (Homo sapiens, UniProt P00734); assay: Inhibitory constant against thrombin (IIa)
[2] = Maximum plasma concentration in dog after administration of 0.7 mg/kg dose of compound; assay type: ADME, organism-based, Canis lupus familiaris; set-up: dose 0.7 mg/kg
[3] = (§1) Plasma half-life in dog after peroral administration was evaluated; assay type: ADME, organism-based, Canis lupus familiaris; settings: plasma, po
[4] = Maximum plasma concentration in dog after administration of 1 mg/kg dose of compound; assay type: ADME, organism-based, Canis lupus familiaris; set-up: dose 1 mg/kg
[5] = Maximum plasma concentration in dog after administration of 0.5 mg/kg dose of compound; assay type: ADME, organism-based, Canis lupus familiaris; set-up: dose 0.5 mg/kg
[6] = Maximum plasma concentration in rat after peroral administration of 10 mg/kg dose of compound; assay type: ADME, organism-based; set-up: dose 10 mg/kg, route oral; settings: po
[7] = Plasma half-life ([…] mg/kg) in rat after intravenous administration; assay type: ADME, organism-based; settings: 10 mg/kg
[8] = Maximum plasma concentration in dog after peroral administration of 0.65 mg/kg dose of compound; assay type: ADME, organism-based, Canis lupus familiaris; set-up: dose 0.65 mg/kg, route oral; settings: po
[9] = Oral bioavailability in dog after administration of 0.65 mg/kg of compound; assay type: ADME, organism-based, Canis lupus familiaris; settings: in vivo
[10] = Plasma half-life (5 mg/kg) in african green monkey after intravenous administration; assay type: ADME, organism-based; settings: chlorocebus aethiops
[11] = Oral bioavailability in Rhesus monkey (dose 5 mg/kg); assay type: ADME, organism-based, Macaca mulatta; settings: in vivo
[12] = Maximum plasma concentration in rhesus monkey after peroral administration of 5 mg/kg dose of compound; assay type: ADME, organism-based, Macaca mulatta; set-up: dose 5 mg/kg, route oral; settings: po
[13] = Plasma half-life (5 mg/kg) in rhesus monkey after intravenous administration; assay type: ADME, organism-based, Macaca mulatta
Canis familiaris = assay: as §1; assay type: ADME, organism-based, Canis lupus familiaris; settings: in vivo, po
[14] = Oral bioavailability in african green monkey after administration of 5 mg/kg of compound; assay type: ADME, organism-based; settings: chlorocebus aethiops, in vivo
[15] = Maximum plasma concentration in african green monkey after peroral administration of 5 mg/kg dose of compound; assay type: ADME, organism-based; set-up: dose 5 mg/kg, route oral; settings: chlorocebus aethiops, po
[16] = Oral bioavailability in rat (dose 10 mg/kg); assay type: ADME, organism-based; settings: in vivo
[17] = Plasma half-life (0.65 mg/kg) dog after intravenous administration; assay type: ADME, organism-based, Canis lupus familiaris

Chain of Serine protease 1 (P07477 whole entry): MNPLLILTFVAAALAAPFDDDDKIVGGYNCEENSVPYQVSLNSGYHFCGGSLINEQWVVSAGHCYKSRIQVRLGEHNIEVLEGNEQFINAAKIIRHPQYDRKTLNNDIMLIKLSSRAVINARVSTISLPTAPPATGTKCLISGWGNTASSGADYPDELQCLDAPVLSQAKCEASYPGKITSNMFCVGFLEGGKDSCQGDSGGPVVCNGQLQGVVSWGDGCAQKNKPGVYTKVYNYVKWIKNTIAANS

| Structure (SMILES) | Ki (Serine protease 1) [µM] | 2x aPTT [1] [µM] | Ki (Prothrombin) [µM] | half-life [3] [h] | Cmax [4] [nM] | also measured |
| --- | --- | --- | --- | --- | --- | --- |
| Cc1nc(N)ccc1CNC(=O)Cn1c(C)cnc(NCC(F)(F)c2ccccn2)c1=O | 0.8 | 0.2 |  |  |  |  |
| Cc1nc(N)ccc1CNC(=O)Cn1c(C)cnc(NCCc2ccncc2)c1=O | 4.6 | 0.45 | 0.0016 |  |  |  |
| Cc1ccnc(CNC(=O)Cn2c(C)cnc(NCC(F)(F)c3ccccn3)c2=O)c1F | 118 | 0.48 |  | 1 |  | Cmax [2]: 1660 nM |
| Cc1cnc(NCC(F)(F)c2ccccn2)c(=O)n1CC(=O)NCc1ccccn1 | > 1000 | 2.2 | 0.015 |  |  |  |
| Cc1cnc(NCC(F)(F)c2ccccc2)c(=O)n1CC(=O)NCc1ncccc1F | 501 | 1.26 | 0.0068 | 2 | 3730 |  |
| Cc1cnc(NCCc2ccccc2)c(=O)n1CC(=O)NCc1cccnc1 | 898 |  | 1.2 |  |  |  |
| Cc1ncccc1CNC(=O)Cn1c(C)cnc(NCCc2ccccc2)c1=O | > 100 |  | 0.28 |  |  |  |
| Cc1ccnc(CNC(=O)Cn2c(C)cnc(NCC(F)(F)c3ccccc3)c2=O)c1F | 40 | 0.72 | 0.0012 | 0.7 | 1830 |  |
| COc1ccnc(CNC(=O)Cn2c(Cl)cnc(NCC(F)(F)c3ccccn3)c2=O)c1 | 665 | 0.71 | 0.0036 | 2 |  | Cmax [5]: 530 nM |
| COc1cccnc1CNC(=O)Cn1c(Cl)cnc(NCC(F)(F)c2ccccn2)c1=O | 706 | 2.19 | 0.015 | 2.3 | 900 |  |
| Cc1cnc(NCCc2ccccc2)c(=O)n1CC(=O)NCc1ccncc1 | 251 |  | 17 |  |  |  |
| Cc1cnc(NCC(F)(F)c2ccccc2)c(=O)n1CC(=O)NCc1cc(Cl)ccn1 | 47 | 0.89 | 0.0013 |  |  |  |
| Cc1ccnc(CNC(=O)Cn2c(C#N)cnc(NCC(F)(F)c3ccccn3)c2=O)c1F | 61 | 0.31 | 0.0004 | 2.4 | 1700 |  |
| O=C(Cn1c(Cl)cnc(NCC(F)(F)c2ccccn2)c1=O)NCc1ncccc1F [DPOC-4088] | 202 | 0.78 | 0.0052 |  | 1380 | Cmax [6]: 1060 nM; half-life [7]: 0.42 h; Cmax [8]: 1160 nM; bioavailability [9]: 66%; half-life [10]: 1.6 h; bioavailability [11]: 5.2%; Cmax [12]: 310 nM; half-life [13]: 0.73 h; T1/2 (Canis familiaris): 6.6 h; bioavailability [14]: 66%; Cmax [15]: 1710 nM; bioavailability [16]: 23%; half-life [17]: 4.48 h |
| Cc1nc(N)ccc1CNC(=O)Cn1c(C)cnc(NCCc2ccccc2)c1=O [L-375378] |  | 0.41 |  |  |  |  |
